pEC50, pIC50: −log10 of the molar value.
Experiments:
[1] = AUC in Sprague-Dawley rat at 1 mg/kg, iv; type: ADME, organism-based; parameters: dose 1 mg/kg, route intravenous; conditions: plasma
[2] = Plasma clearance in Sprague-Dawley rat at 1 mg/kg, iv and 2 mg/kg, po; type: ADME, organism-based
Estrogen receptor beta [3] = target: T1, Estrogen receptor beta (Homo sapiens, UniProt Q92731)
Description: Agonist activity at human recombinant ERbeta expressed in HEK293 cells by alkaline phosphatase reporter gene transactivation assay

[4] = Bioavailability in Sprague-Dawley rat at 1 mg/kg, iv and 2 mg/kg, po; type: ADME, organism-based; conditions: in vivo
Estrogen receptor [5] = target: T2, Estrogen receptor (Homo sapiens, UniProt P03372)
T2 sequence (P03372 whole entry): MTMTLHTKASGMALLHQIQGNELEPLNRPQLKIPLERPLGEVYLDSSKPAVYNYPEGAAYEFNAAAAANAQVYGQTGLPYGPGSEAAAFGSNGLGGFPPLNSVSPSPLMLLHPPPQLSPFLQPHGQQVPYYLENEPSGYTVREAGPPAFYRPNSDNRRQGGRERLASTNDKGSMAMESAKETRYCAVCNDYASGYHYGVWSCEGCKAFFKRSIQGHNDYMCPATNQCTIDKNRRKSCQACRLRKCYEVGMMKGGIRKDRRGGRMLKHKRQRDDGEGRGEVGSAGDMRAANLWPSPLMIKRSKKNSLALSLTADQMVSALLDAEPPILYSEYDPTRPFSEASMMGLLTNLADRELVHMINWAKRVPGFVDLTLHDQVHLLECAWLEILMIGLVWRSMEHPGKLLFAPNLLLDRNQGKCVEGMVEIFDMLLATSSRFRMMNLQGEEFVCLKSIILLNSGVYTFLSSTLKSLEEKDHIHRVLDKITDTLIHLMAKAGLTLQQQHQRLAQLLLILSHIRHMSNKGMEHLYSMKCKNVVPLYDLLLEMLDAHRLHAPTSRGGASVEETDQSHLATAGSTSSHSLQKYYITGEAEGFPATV
Description: Agonist activity at human recombinant ERalpha expressed in HEK293 cells by alkaline phosphatase reporter gene transactivation assay

[6] = Half life in Sprague-Dawley rat at 1 mg/kg, iv and 2 mg/kg, po; type: ADME, organism-based; conditions: in vivo
Estrogen receptor beta [7] = target: T1, Estrogen receptor beta; remark: listed apart in the source
Description: Binding affinity to human recombinant ERbeta by scintillation proximity assay

Estrogen receptor [8] = target: T2, Estrogen receptor; remark: listed apart in the source
Description: Binding affinity to human recombinant ERalpha by scintillation proximity assay

T1 sequence (Q92731 whole entry): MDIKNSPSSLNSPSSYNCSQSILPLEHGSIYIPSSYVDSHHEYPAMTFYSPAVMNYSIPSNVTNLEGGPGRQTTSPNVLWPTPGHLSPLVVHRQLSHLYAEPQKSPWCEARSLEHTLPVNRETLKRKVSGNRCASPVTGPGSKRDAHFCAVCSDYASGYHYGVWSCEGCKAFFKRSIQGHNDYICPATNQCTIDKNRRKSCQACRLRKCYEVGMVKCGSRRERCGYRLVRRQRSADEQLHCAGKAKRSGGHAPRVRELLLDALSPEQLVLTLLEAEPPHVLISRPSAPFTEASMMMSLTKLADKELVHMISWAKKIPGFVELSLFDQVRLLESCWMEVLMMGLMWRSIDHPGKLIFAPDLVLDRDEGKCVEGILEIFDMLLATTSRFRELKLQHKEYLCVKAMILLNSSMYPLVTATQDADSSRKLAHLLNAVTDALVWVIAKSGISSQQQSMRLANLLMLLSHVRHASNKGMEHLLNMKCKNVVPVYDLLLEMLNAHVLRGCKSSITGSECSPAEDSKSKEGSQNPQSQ

Work on `CC[C@@]12CCC(=O)C(C(F)(F)F)=C1c1ccc3nn[nH]c3c1C2` yielded an AUC [1] of 0.6 µM·h, a clearance [2] of 108 mL/min/kg and a pEC50 (Estrogen receptor beta [3]) of 8.31. For the same molecule, the bioavailability [4] was 59%, the pEC50 (Estrogen receptor [5]) was 6.62 and the half-life [6] was 0.4 h. It also gave a pIC50 (Estrogen receptor beta [7]) of 7.96 and a pIC50 (Estrogen receptor [8]) of 5.78.

For `CCCC12CCC(=O)C(C)=C1c1ccc3nn[nH]c3c1C2` (stereo not given), the pEC50 (Estrogen receptor beta [3]) was 7.77, the pEC50 (Estrogen receptor [5]) was 6.35 and the pIC50 (Estrogen receptor beta [7]) was 7.09. It also gave a pIC50 (Estrogen receptor [8]) of 5.21.

`CCCCC1=C2c3ccc4[nH]nnc4c3CC2(CC)CCC1=O` (stereo not given) showed a pEC50 (Estrogen receptor beta [3]) of 7.22, a pEC50 (Estrogen receptor [5]) of 6.17 and a pIC50 (Estrogen receptor beta [7]) of 7.37. The pIC50 (Estrogen receptor [8]) was 5.95.

`CCCC12CCC(=O)C(Br)=C1c1ccc3nn[nH]c3c1C2` (stereo not given) showed a pEC50 (Estrogen receptor beta [3]) of 7.74, a pEC50 (Estrogen receptor [5]) of 6.25 and a pIC50 (Estrogen receptor beta [7]) of 7.37. For the same molecule, the pIC50 (Estrogen receptor [8]) was 5.48.

Molecule `CCC1=C2c3ccc4[nH]nnc4c3CC2(CC)CCC1=O` (stereo not given) has a pEC50 (Estrogen receptor beta [3]) of 8.14, a pEC50 (Estrogen receptor [5]) of 6.34 and a pIC50 (Estrogen receptor beta [7]) of 7.74. For the same molecule, the pIC50 (Estrogen receptor [8]) was 5.88.

`CCCC12CCC(=O)C(CC)=C1c1ccc3[nH]nnc3c1C2` (stereo not given) gave a pEC50 (Estrogen receptor beta [3]) of 8.11, a pEC50 (Estrogen receptor [5]) of 6.92 and a pIC50 (Estrogen receptor beta [7]) of 7.74. It also gave a pIC50 (Estrogen receptor [8]) of 6.21.

`CCCCC12CCC(=O)C(c3ccco3)=C1c1ccc3[nH]nnc3c1C2` (stereo not given) showed a pEC50 (Estrogen receptor beta [3]) of 8.19, a pEC50 (Estrogen receptor [5]) of 6.06 and a pIC50 (Estrogen receptor beta [7]) of 8.13. The pIC50 (Estrogen receptor [8]) was 5.95.

In the case of `CCCC[C@@]12CCC(=O)C(c3cccs3)=C1c1ccc3nn[nH]c3c1C2`, the pEC50 (Estrogen receptor beta [3]) was 9.02, the pEC50 (Estrogen receptor [5]) was 7.10 and the pIC50 (Estrogen receptor beta [7]) was 8.64. The pIC50 (Estrogen receptor [8]) was 7.47.

`CCC12CCC(=O)C(c3ccc(O)cc3)=C1c1ccc3[nH]nnc3c1C2` (stereo not given) gave a pEC50 (Estrogen receptor beta [3]) of 8.37, a pEC50 (Estrogen receptor [5]) of 6.05 and a pIC50 (Estrogen receptor beta [7]) of 7.96. For the same molecule, the pIC50 (Estrogen receptor [8]) was 7.09.

For `CCCC[C@@]12CCC(=O)C(Br)=C1c1ccc3[nH]nnc3c1C2`, the AUC [1] was 1.9 µM·h, the clearance [2] was 24.4 mL/min/kg and the pEC50 (Estrogen receptor beta [3]) was 8.26. The bioavailability [4] was 36%, the pEC50 (Estrogen receptor [5]) was 6.28 and the half-life [6] was 2.9 h. For the same molecule, the pIC50 (Estrogen receptor beta [7]) was 8.24 and the pIC50 (Estrogen receptor [8]) was 5.72.

`CCCC[C@]12CCC(=O)C(CC)=C1c1ccc3[nH]nnc3c1C2` showed an AUC [1] of 3 µM·h, a clearance [2] of 18.3 mL/min/kg and a pEC50 (Estrogen receptor beta [3]) of 7.55. It also gave a bioavailability [4] of 99%, a pEC50 (Estrogen receptor [5]) of 6.41 and a half-life [6] of 1.2 h. The pIC50 (Estrogen receptor beta [7]) was 6.62 and the pIC50 (Estrogen receptor [8]) was 5.32.

For `CCC1=C2c3ccc4[nH]nnc4c3C[C@@]2(CC)CCC1=O`, the pIC50 (Estrogen receptor beta [7]) was 5.82 and the pIC50 (Estrogen receptor [8]) was less than 5.00.

For `CCCCC12CCC(=O)C(C)=C1c1ccc3[nH]nnc3c1C2` (stereo not given), the pEC50 (Estrogen receptor beta [3]) was 7.70, the pIC50 (Estrogen receptor beta [7]) was 7.57 and the pIC50 (Estrogen receptor [8]) was 5.22.

In the case of `CCCC1=C2c3ccc4[nH]nnc4c3CC2(CCC)CCC1=O` (stereo not given), the pIC50 (Estrogen receptor beta [7]) was 7.64 and the pIC50 (Estrogen receptor [8]) was 6.46.

In the case of `CCCC1=C2c3ccc4nn[nH]c4c3CC2(CC)CCC1=O` (stereo not given), the pEC50 (Estrogen receptor beta [3]) was 7.85, the pEC50 (Estrogen receptor [5]) was 6.10 and the pIC50 (Estrogen receptor beta [7]) was 7.96. It also gave a pIC50 (Estrogen receptor [8]) of 6.45.

Molecule `CCC12CCC(=O)C(C)=C1c1ccc3[nH]nnc3c1C2` (stereo not given) has a pEC50 (Estrogen receptor beta [3]) of 7.70, a pEC50 (Estrogen receptor [5]) of 6.17 and a pIC50 (Estrogen receptor beta [7]) of 7.62. For the same molecule, the pIC50 (Estrogen receptor [8]) was 5.72.

Molecule `CCCCC12CCC(=O)C(CCC)=C1c1ccc3[nH]nnc3c1C2` (stereo not given) has a pEC50 (Estrogen receptor beta [3]) of 7.02, a pEC50 (Estrogen receptor [5]) of 5.93 and a pIC50 (Estrogen receptor beta [7]) of 7.24. It also gave a pIC50 (Estrogen receptor [8]) of 5.90.

`CCCC[C@@]12CCC(=O)C(C(F)(F)F)=C1c1ccc3[nH]nnc3c1C2` gave a pEC50 (Estrogen receptor beta [3]) of 8.64, a pEC50 (Estrogen receptor [5]) of 6.77 and a pIC50 (Estrogen receptor beta [7]) of 8.49. It also gave a pIC50 (Estrogen receptor [8]) of 6.05.

Work on `CCC12CCC(=O)C(Br)=C1c1ccc3nn[nH]c3c1C2` (stereo not given) yielded a pEC50 (Estrogen receptor beta [3]) of 7.34, a pEC50 (Estrogen receptor [5]) of 5.90 and a pIC50 (Estrogen receptor beta [7]) of 7.22. It also gave a pIC50 (Estrogen receptor [8]) of 5.29.

`CCC1=C2c3ccc4[nH]nnc4c3C[C@]2(CC)CCC1=O` gave an AUC [1] of 1 µM·h, a clearance [2] of 64.8 mL/min/kg and a pEC50 (Estrogen receptor beta [3]) of 8.24. For the same molecule, the bioavailability [4] was 70%, the pEC50 (Estrogen receptor [5]) was 6.85 and the half-life [6] was 0.3 h. The pIC50 (Estrogen receptor beta [7]) was 8.24 and the pIC50 (Estrogen receptor [8]) was 6.19.

With `CCC12CCC(=O)C=C1c1ccc3nn[nH]c3c1C2` (stereo not given) the pEC50 (Estrogen receptor beta [3]) was 6.32, the pEC50 (Estrogen receptor [5]) was 5.91 and the pIC50 (Estrogen receptor beta [7]) was 5.52. It also gave a pIC50 (Estrogen receptor [8]) of less than 5.00.

Molecule `CCCC[C@@]12CCC(=O)C(CC)=C1c1ccc3nn[nH]c3c1C2` has an AUC [1] of 0.9 µM·h, a clearance [2] of 62 mL/min/kg and a pEC50 (Estrogen receptor beta [3]) of 9.40. For the same molecule, the bioavailability [4] was 28%, the pEC50 (Estrogen receptor [5]) was 7.52 and the half-life [6] was 0.4 h. It also gave a pIC50 (Estrogen receptor beta [7]) of 8.29 and a pIC50 (Estrogen receptor [8]) of 6.66.

Work on `CCCCC12CCC(=O)C(CC)=C1c1ccc3[nH]nnc3c1C2` (racemic) yielded an AUC [1] of 1.7 µM·h, a clearance [2] of 31.6 mL/min/kg and a bioavailability [4] of 85%. The half-life [6] was 2.9 h.

With `CCCCC12CCC(=O)C(Br)=C1c1ccc3nn[nH]c3c1C2` (racemic) the AUC [1] was 0.5 µM·h, the clearance [2] was 102 mL/min/kg and the pEC50 (Estrogen receptor beta [3]) was 8.40. The bioavailability [4] was 0%, the pEC50 (Estrogen receptor [5]) was 7.03 and the half-life [6] was 1.5 h. For the same molecule, the pIC50 (Estrogen receptor beta [7]) was 8.74 and the pIC50 (Estrogen receptor [8]) was 6.85.

From ChEMBL document CHEMBL1146919, “Triazolo-tetrahydrofluorenones as selective estrogen receptor beta agonists” (Bioorg Med Chem Lett, 2006)
